Assay results taken from the NIST ThermoML archive (doi:10.1016/j.jct.2008.10.010).

Experiment: molar heat capacity at constant pressure; xn = mol fraction of the nth substance listed
Conditions: 101.3 kPa, Liquid, Small sample (50 mg) DSC

CCC(C)(C)O [2-methylbutan-2-ol] + CCCCCCC
Conditions	molar heat capacity at constant pressure [J/K/mol]
345.14 K, x1 = 0.0249	244.12
345.14 K, x1 = 0.0494	246.22
345.14 K, x1 = 0.1	253.28
345.14 K, x1 = 0.1547	260.94
345.14 K, x1 = 0.1999	266.5
345.14 K, x1 = 0.2993	275.63
345.14 K, x1 = 0.4051	282.19
345.14 K, x1 = 0.4986	286.41
345.14 K, x1 = 0.5981	289.46
345.14 K, x1 = 0.7015	291.51
345.14 K, x1 = 0.8023	291.94
345.14 K, x1 = 0.9139	291.66
345.14 K, x1 = 0.9609	290.76
346.15 K, x1 = 0.0061	244.11
346.15 K, x1 = 0.0249	244.51
346.15 K, x1 = 0.0494	246.51
346.15 K, x1 = 0.1	253.41
346.15 K, x1 = 0.1547	261
346.15 K, x1 = 0.1999	266.61
346.15 K, x1 = 0.2993	275.72
346.15 K, x1 = 0.4051	282.35
346.15 K, x1 = 0.4986	286.63
346.15 K, x1 = 0.5981	289.78
346.15 K, x1 = 0.7015	291.88
346.15 K, x1 = 0.8023	292.49
346.15 K, x1 = 0.9139	292.09
346.15 K, x1 = 0.9609	291.29
347.13 K, x1 = 0.0494	246.82
347.15 K, x1 = 0.9139	292.63
347.16 K, x1 = 0.0061	244.48
347.16 K, x1 = 0.0249	244.81
347.16 K, x1 = 0.1	253.4
347.16 K, x1 = 0.1547	261.01
347.16 K, x1 = 0.1999	266.57
347.16 K, x1 = 0.2993	275.89
347.16 K, x1 = 0.4051	282.48
347.16 K, x1 = 0.4986	286.83
347.16 K, x1 = 0.5981	290.05
347.16 K, x1 = 0.7015	292.26
347.16 K, x1 = 0.8023	292.88
347.16 K, x1 = 0.9609	291.82
348.14 K, x1 = 0.0061	244.95
348.14 K, x1 = 0.0249	245.23
348.14 K, x1 = 0.0494	247.05
348.14 K, x1 = 0.1	253.5
348.14 K, x1 = 0.2993	275.95
348.14 K, x1 = 0.4051	282.77
348.14 K, x1 = 0.4986	287.07
348.14 K, x1 = 0.5981	290.42
348.14 K, x1 = 0.7015	292.68
348.14 K, x1 = 0.8023	293.3
348.14 K, x1 = 0.9139	293.11
348.14 K, x1 = 0.9609	292.28
348.16 K, x1 = 0.1547	261.02
348.16 K, x1 = 0.1999	266.63
349.15 K, x1 = 0.0061	245.31
349.15 K, x1 = 0.0249	245.69
349.15 K, x1 = 0.0494	247.42
349.15 K, x1 = 0.1	253.6
349.15 K, x1 = 0.1547	261.07
349.15 K, x1 = 0.1999	266.66
349.15 K, x1 = 0.2993	276.06
349.15 K, x1 = 0.4051	282.91
349.15 K, x1 = 0.4986	287.38
349.15 K, x1 = 0.5981	290.79
349.15 K, x1 = 0.7015	293.13
349.15 K, x1 = 0.8023	293.78
349.15 K, x1 = 0.9139	293.7
349.15 K, x1 = 0.9609	292.9
350.15 K, x1 = 0.0061	245.7
350.15 K, x1 = 0.0494	247.73
350.15 K, x1 = 0.1999	266.71
350.15 K, x1 = 0.4986	287.48
350.15 K, x1 = 0.5981	290.98
350.15 K, x1 = 0.7015	293.35
350.15 K, x1 = 0.8023	294.18
350.15 K, x1 = 0.9139	294.04
350.15 K, x1 = 0.9609	293.31
350.16 K, x1 = 0.0249	245.9
350.16 K, x1 = 0.1	253.7
350.16 K, x1 = 0.1547	261.07
350.16 K, x1 = 0.2993	276.06
350.16 K, x1 = 0.4051	283.01
351.14 K, x1 = 0.0061	246.16
351.14 K, x1 = 0.0249	246.29
351.14 K, x1 = 0.0494	247.89
351.14 K, x1 = 0.1	253.68
351.14 K, x1 = 0.1547	261.02
351.14 K, x1 = 0.1999	266.6
351.14 K, x1 = 0.4051	283
351.14 K, x1 = 0.4986	287.61
351.14 K, x1 = 0.5981	291.23
351.14 K, x1 = 0.7015	293.67
351.14 K, x1 = 0.8023	294.44
351.14 K, x1 = 0.9139	294.48
351.14 K, x1 = 0.9609	293.76
351.16 K, x1 = 0.2993	276.1
352.15 K, x1 = 0.0061	246.53
352.15 K, x1 = 0.0249	246.7
352.15 K, x1 = 0.0494	248.24
352.15 K, x1 = 0.1	253.93
352.15 K, x1 = 0.1547	261.06
352.15 K, x1 = 0.1999	266.66
352.15 K, x1 = 0.2993	276.22
352.15 K, x1 = 0.4051	283.15
352.15 K, x1 = 0.4986	287.82
352.15 K, x1 = 0.5981	291.44
352.15 K, x1 = 0.7015	293.88
352.15 K, x1 = 0.8023	294.82
352.15 K, x1 = 0.9139	294.82
352.15 K, x1 = 0.9609	294.14
353.15 K, x1 = 0.0061	246.79
353.15 K, x1 = 0.0249	247.03
353.15 K, x1 = 0.0494	248.53
353.15 K, x1 = 0.1	253.91
353.15 K, x1 = 0.1547	260.99
353.15 K, x1 = 0.1999	266.57
353.15 K, x1 = 0.2993	276.2
353.15 K, x1 = 0.4051	283.18
353.15 K, x1 = 0.4986	287.86
353.15 K, x1 = 0.5981	291.63
353.15 K, x1 = 0.7015	294.17
353.15 K, x1 = 0.8023	295.16
353.15 K, x1 = 0.9139	295.27
353.15 K, x1 = 0.9609	294.55
